This passage reports EC50 results from patent US20180170904A1, “PYRIDIN-3-YL ACETIC ACID DERIVATIVES AS INHIBITORS OF HUMAN IMMUNODEFICIENCY VIRUS REPLICATION” (priority 2015, published 2018).

SMILES strings stand for the structures. Where two headings read alike, the source gives them in different places.

This assay relates to NL-RLuc virus (recombinant NL4-3 proviral clone with Renilla Luciferase gene). The experiment in a line: Inhibition of HIV replication (NL-RLuc reporter virus in MT-2 cells). The class given is cell-based. As to conditions: Renilla, NL43, 120 h. The text has this: Inhibition of HIV replication: A recombinant NL-RLuc proviral clone was constructed in which a section of the nef gene from NL4-3 was replaced with the Renilla Luciferase gene. This virus is fully infectious and can undergo multiple cycles of replication in cell culture. In addition, the luciferous reporter provides a simple and easy method for quantitating the extent of virus growth and consequently, the antiviral activity of test compounds. The plasmid pNLRLuc contains the proviral NL-Rluc DNA cloned into pUC18 at the PvuII site. The NL-RLuc virus was prepared by transfection of 293T cells with the plasmid pNLRLuc. Transfections were performed using the LipofectAMINE PLUS kit from Invitrogen (Carlsbad, Calif.) according to the manufacturer and the virus generated was titered in MT-2 cells. For susceptibility analyses, the titrated virus was used to infect MT-2 cells in the presence of compound, and after 5 days of incubation, cells were processed and quantitated for virus growth by the amount of expressed luciferase. Assay media was RPMI 1640 supplemented with 10% heat inactivated fetal bovine serum (FBS), 100 units/ml penicillin G/100 units/ml streptomycin, 10 mM HEPES buffer pH 7.55 and 2 mM L-glutamine. The results from at least 2 experiments were used to calculate the EC50 values. Luciferase was quantitated using the Dual Luciferase kit from Promega (Madison, Wis.). Susceptibility of viruses to compounds was determined by incubation in the presence of serial dilutions of the compound. The 50% effective concentration (EC50) was calculated by using the exponential form of the median effect equation where (Fa)=1/[1+(ED50/drug conc.)^m] (Johnson V A, Byington R T. Infectivity Assay. In Techniques in HIV Research. ed. Aldovini A, Walker B D. 71-76. New York: Stockton Press.1990). Activity equal to A refers to a compound having an EC50≤100 nM, while B and C denote compounds having an EC50 between 100 nM and 1 uM (B) or >1 uM (C).

Consider `Cc1cc(CNC(=O)c2ccc(-c3c(C)nc(C)c([C@H](OC(C)(C)C)C(=O)O)c3N3CCC(C)(C)CC3)cc2)ccc1F` [Example 1, (S)-2-(tert-Butoxy)-2-(4-(4,4-dimethylpiperidin-1-yl)-5-(4-((4-fluoro-3-methylbenzyl)carbamoyl)phenyl)-2,6-dimethylpyridin-3-yl)acetic acid], for which the EC50 is below 0.1 µM (read-out: Activity) and 0.007 µM (read-out: EC50 μM).
Regarding `Cc1nc(C)c([C@H](OC(C)(C)C)C(=O)O)c(N2CCC(C)(C)CC2)c1-c1ccc(C(=O)NCCc2ccc(F)cc2)cc1` [Example 2, (S)-2-(tert-Butoxy)-2-(4-(4,4-dimethylpiperidin-1-yl)-5-(4-((4-fluorophenethyl)carbamoyl)phenyl)-2,6-dimethylpyridin-3-yl)acetic acid], the EC50 (read-out: Activity) is below 0.1 µM.
For the compound `Cc1nc(C)c([C@H](OC(C)(C)C)C(=O)O)c(N2CCC(C)(C)CC2)c1-c1ccc(-c2ncc(Cc3ccc(F)cc3)s2)cc1` [Example 3, (S)-2-(tert-Butoxy)-2-(4-(4,4-dimethylpiperidin-1-yl)-5-(4-(5-(4-fluorobenzyl)thiazol-2-yl)phenyl)-2,6-dimethylpyridin-3-yl)acetic acid], the EC50 (read-out: Activity) was below 0.1 µM.
Consider `Cc1nc(C)c([C@H](OC(C)(C)C)C(=O)O)c(N2CCC(C)(C)CC2)c1-c1ccc(-c2ncc(Cc3ccc(F)cc3)o2)cc1` [Example 4, (S)-2-(tert-Butoxy)-2-(4-(4,4-dimethylpiperidin-1-yl)-5-(4-(5-(4-fluorobenzyl)oxazol-2-yl)phenyl)-2,6-dimethylpyridin-3-yl)acetic acid], for which the EC50 (read-out: Activity) is below 0.1 µM.
Regarding `Cc1nc(C)c([C@H](OC(C)(C)C)C(=O)O)c(N2CCC(C)(C)CC2)c1-c1ccc(-c2ncc(-c3ccc(F)cc3)o2)cc1` [Example 5, (S)-2-(tert-Butoxy)-2-(4-(4,4-dimethylpiperidin-1-yl)-5-(4-(5-(4-fluorophenyl)oxazol-2-yl)phenyl)-2,6-dimethylpyridin-3-yl)acetic acid], the EC50 (read-out: Activity) is below 0.1 µM.
Consider `Cc1nc(C)c([C@H](OC(C)(C)C)C(=O)O)c(N2CCC(C)(C)CC2)c1-c1ccc(-c2ncc(-c3ccc(F)cc3)s2)cc1` [Example 6, (S)-2-(tert-Butoxy)-2-(4-(4,4-dimethylpiperidin-1-yl)-5-(4-(5-(4-fluorophenyl)thiazol-2-yl)phenyl)-2,6-dimethylpyridin-3-yl)acetic acid], for which the EC50 (read-out: Activity) was below 0.1 µM.
For `Cc1nc(C)c([C@H](OC(C)(C)C)C(=O)O)c(N2CCC(C)(C)CC2)c1-c1ccccc1` [Example 7, (S)-2-(tert-Butoxy)-2-(4-(4,4-dimethylpiperidin-1-yl)-2,6-dimethyl-5-phenylpyridin-3-yl)acetic acid], under “read-out: Activity”, the EC50 was below 0.1 µM.
`Cc1nc(C)c([C@H](OC(C)(C)C)C(=O)O)c(N2CCC(C)(C)CC2)c1-c1ccc(-c2ccccc2)cc1` [Example 8, (S)-2-(5-([1,1′-Biphenyl]-4-yl)-4-(4,4-dimethylpiperidin-1-yl)-2,6-dimethylpyridin-3-yl)-2-(tert-butoxy)acetic acid]: the EC50 (read-out: Activity) was below 0.1 µM and the EC50 (read-out: EC50 μM) is 0.031 µM.
As for `CCCOc1ccc(-c2ccc(-c3c(C)nc(C)c([C@H](OC(C)(C)C)C(=O)O)c3N3CCC(C)(C)CC3)cc2)cc1` [Example 9, (S)-2-(tert-Butoxy)-2-(4-(4,4-dimethylpiperidin-1-yl)-2,6-dimethyl-5-(4′-propoxy-[1,1′-biphenyl]-4-yl)pyridin-3-yl)acetic acid], the EC50 (read-out: Activity) was below 0.1 µM.
For `Cc1nc(C)c([C@H](OC(C)(C)C)C(=O)O)c(N2CCC(C)(C)CC2)c1-c1ccc(-c2ccc(OC(C)C)cc2)cc1` [Example 10, (S)-2-(tert-Butoxy)-2-(4-(4,4-dimethylpiperidin-1-yl)-5-(4′-isopropoxy-[1,1′-biphenyl]-4-yl)-2,6-dimethylpyridin-3-yl)acetic acid], for the setting “read-out: Activity”, the EC50 was below 0.1 µM.
Take `Cc1nc(C)c([C@H](OC(C)(C)C)C(=O)O)c(N2CCC(C)(C)CC2)c1-c1ccc(-c2ccc(Cl)cc2)cc1` [Example 11, (S)-2-(tert-Butoxy)-2-(5-(4′-chloro-[1,1′-biphenyl]-4-yl)-4-(4,4-dimethylpiperidin-1-yl)-2,6-dimethylpyridin-3-yl)acetic acid]: the EC50 by setting is: (read-out: Activity) 0.1 to 1 µM; (read-out: EC50 μM) 0.135 µM.
For the compound `CCc1ccc(-c2ccc(-c3c(C)nc(C)c([C@H](OC(C)(C)C)C(=O)O)c3N3CCC(C)(C)CC3)cc2)cc1` [Example 12, (S)-2-(tert-Butoxy)-2-(4-(4,4-dimethylpiperidin-1-yl)-5-(4′-ethyl-[1,1′-biphenyl]-4-yl)-2,6-dimethylpyridin-3-yl)acetic acid], where the note is “read-out: Activity”, the EC50 is 0.1 to 1 µM.
For `Cc1nc(C)c([C@H](OC(C)(C)C)C(=O)O)c(N2CCC(C)(C)CC2)c1-c1ccc(-c2ccccn2)cc1` [Example 13, (S)-2-(tert-butoxy)-2-(4-(4,4-dimethylpiperidin-1-yl)-2,6-dimethyl-5-(4-(pyridin-2-yl)phenyl)pyridin-3-yl)acetic acid], the EC50 (read-out: Activity) was below 0.1 µM.
On the same count and under the same terms, for `Cc1nc(C)c([C@H](OC(C)(C)C)C(=O)O)c(N2CCC(C)(C)CC2)c1-c1ccc(-c2ccccc2)c(F)c1` [Example 14, (S)-2-(tert-Butoxy)-2-(4-(4,4-dimethylpiperidin-1-yl)-5-(2-fluoro-[1,1′-biphenyl]-4-yl)-2,6-dimethylpyridin-3-yl)acetic acid] the value was below 0.1 µM.
Same read-out and setting: with `Cc1nc(C)c([C@H](OC(C)(C)C)C(=O)O)c(N2CCC(C)(C)CC2)c1-c1ccc(Cc2ccccc2)cc1` [Example 15, (S)-2-(5-(4-Benzylphenyl)-4-(4,4-dimethylpiperidin-1-yl)-2,6-dimethylpyridin-3-yl)-2-(tert-butoxy)acetic acid] the figure was below 0.1 µM; with `COc1ccc(-c2ccc(-c3c(C)nc(C)c([C@H](OC(C)(C)C)C(=O)O)c3N3CCC(C)(C)CC3)cc2)cc1` [Example 16, (S)-2-(tert-Butoxy)-2-(4-(4,4-dimethylpiperidin-1-yl)-5-(4′-methoxy-[1,1′-biphenyl]-4-yl)-2,6-dimethylpyridin-3-yl)acetic acid], below 0.1 µM.
Take `Cc1cccc(-c2ccc(-c3c(C)nc(C)c([C@H](OC(C)(C)C)C(=O)O)c3N3CCC(C)(C)CC3)cc2)c1` [Example 17, (S)-2-(tert-Butoxy)-2-(4-(4,4-dimethylpiperidin-1-yl)-2,6-dimethyl-5-(3′-methyl-[1,1′-biphenyl]-4-yl)pyridin-3-yl)acetic acid]: the EC50 is below 0.1 µM (read-out: Activity) and 0.053 µM (read-out: EC50 μM).
`Cc1nc(C)c([C@H](OC(C)(C)C)C(=O)O)c(N2CCC(C)(C)CC2)c1-c1ccc(-c2cccc3ccccc23)cc1` [Example 18, (S)-2-(tert-Butoxy)-2-(4-(4,4-dimethylpiperidin-1-yl)-2,6-dimethyl-5-(4-(naphthalen-1-yl)phenyl)pyridin-3-yl)acetic acid]: where the note is “read-out: Activity”, the EC50 is below 0.1 µM.
For the compound `Cc1ccc(-c2c(C)nc(C)c([C@H](OC(C)(C)C)C(=O)O)c2N2CCC(C)(C)CC2)cc1F` [Example 19, (S)-2-(tert-Butoxy)-2-(4-(4,4-dimethylpiperidin-1-yl)-5-(3-fluoro-4-methylphenyl)-2,6-dimethylpyridin-3-yl)acetic acid], the EC50 (read-out: Activity) is below 0.1 µM.
On to `Cc1nc(C)c([C@H](OC(C)(C)C)C(=O)O)c(N2CCC(C)(C)CC2)c1-c1ccc(CC(C)C)cc1` [Example 20, (S)-2-(tert-Butoxy)-2-(4-(4,4-dimethylpiperidin-1-yl)-5-(4-isobutylphenyl)-2,6-dimethylpyridin-3-yl)acetic acid], for which the EC50 is, setting by setting: (read-out: Activity) below 0.1 µM; (read-out: EC50 μM) 0.161 µM.
